# According to patent US12084462B2, “Spiro bicyclic inhibitors of menin-MLL interaction” (Janssen Pharmaceutica NV, priority 2016, dated 2024):
# “And” between values parts separate entries of the source, which are not always exact repeats. Equal values may be shown once. Read-outs that look alike come from different tables or passages of the source.
# Assays:
# [1] = test system: MOLM14; test: Proliferation assay (spheroid assay) MOLM14; type: cell-based, human
# How it was run: (§1)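 Cells grown as spheroids in ultra-low attachment round-bottom wells with compound at varied concentrations (0.3% DMSO) for 8 d at 37 °C; confluence imaged every 4 h. AUC of confluence over time (t=0 baseline) expressed as % of vehicle control; absolute IC50 from nonlinear least-squares fit.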
# [2] = test system: MV-4-11; test: Proliferation assay (spheroid assay) MV-4-11; type: cell-based, human
# How it was run: as §1
# [3] = test system: K562; test: Proliferation assay (spheroid assay) K562, control cell line; type: cell-based; conditions: Homo sapiens
# Experimental: (§2) The anti-proliferative effect of menin/MLL protein/protein interaction inhibitor test compounds was assessed in human leukemia cell lines. The cell lines MV-4-11 and MOLM14 harbor MLL translocations and express the MLL fusion proteins MLL-AF4 and MLL-AF9, respectively, as well as the wildtype protein from the second allele. […] K562 and KG1 were used as a control cell lines containing two MLL wildtype alleles in order to exclude compounds that display general cytotoxic effects.
# (§3) MV-4-11 and MOLM14 were cultured in RPMI-1640 (Sigma Aldrich) supplemented with 10% fetal bovine serum (HyClone), 2 mM L-glutamine (Sigma Aldrich) and 50 μg/ml gentamycin (Gibco). K562 were propagated in RPMI-1640 (Sigma Aldrich) supplemented with 20% fetal bovine serum (HyClone), 2 mM L-glutamine (Sigma Aldrich) and 50 μg/ml gentamycin (Gibco). KG1 were cultured in Iscove's MDM (Gibco) supplemented with 20% fetal bovine serum (HyClone), 2 mM L-glutamine (Sigma Aldrich) and 50 μg/ml gentamycin (Gibco).
# (§4) In order to assess the anti-proliferative effects, 1,500 MV-4-11, 300 MOLM14, 750 K562 or 1,300 KG1 cells were seeded in 200 μl media per well in 96-well round bottom, ultra-low attachment plates (Costar, catalogue number 7007). Cell seeding numbers were chosen based on growth curves to ensure linear growth throughout the experiment. Test compounds were added at different concentrations and the DMSO content was normalized to 0.3%. Cells were incubated for 8 d at 37° C. and 5% CO2. Spheroid like growth was monitored in real-time by live-cell imaging (IncuCyteZOOM, Essenbio, 4× objective) acquiring one image every four hours for 8 d. Confluence (%) as a measure of spheroid size was determined using an integrated analysis tool.
# (§5) In order to determine the cumulative effect of the test compounds over time, the area under the curve (AUC) in a plot of confluence against time was calculated. Confluence at the beginning of the experiment (t=0) was used as baseline for the AUC calculation.
# (§6) Absolute IC50 values were calculated according to the following procedure: % Control=(AUC sample/AUC control)*100 AUC control=mean AUC of control values (cells without compound/DMSO as vehicle control)
# (§7) A non-linear curve fit was applied using the least squares (ordinary) fit method to the plot of % control versus compound concentration. Based on this, the absolute IC50 value (half maximal inhibitory concentration of the test compound causing an anti-proliferative effect of 50% relative to the vehicle control) was calculated.
# [4] = test system: KG1; test: Proliferation assay (spheroid assay) KG1, control cell line; type: cell-based; conditions: Homo sapiens
# Experimental: as §2, §3, §4, §5, §6, §7
# [5] = biological target: T1, menin (Homo sapiens, UniProt O00255, T541A); test: Menin/MLL fluorescence polarization (FP) assay; type: binding
# T1 sequence (O00255 with tags, fused parts or gaps T541A): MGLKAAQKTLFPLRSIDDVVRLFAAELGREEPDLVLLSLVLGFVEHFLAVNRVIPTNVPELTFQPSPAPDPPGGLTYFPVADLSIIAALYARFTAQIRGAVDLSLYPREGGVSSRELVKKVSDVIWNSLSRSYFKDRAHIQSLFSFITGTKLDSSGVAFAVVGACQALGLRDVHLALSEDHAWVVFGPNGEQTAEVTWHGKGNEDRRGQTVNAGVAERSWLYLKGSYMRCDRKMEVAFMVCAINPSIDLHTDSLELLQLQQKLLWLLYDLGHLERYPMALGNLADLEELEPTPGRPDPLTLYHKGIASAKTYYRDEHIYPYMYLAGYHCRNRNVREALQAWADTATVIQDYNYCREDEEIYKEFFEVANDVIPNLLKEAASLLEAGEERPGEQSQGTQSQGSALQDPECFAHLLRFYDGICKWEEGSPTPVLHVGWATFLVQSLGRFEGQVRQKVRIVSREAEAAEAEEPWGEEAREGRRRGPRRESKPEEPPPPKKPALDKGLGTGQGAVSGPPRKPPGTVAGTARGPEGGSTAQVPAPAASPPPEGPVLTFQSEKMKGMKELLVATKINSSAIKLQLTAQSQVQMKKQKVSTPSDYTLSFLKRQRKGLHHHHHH
# Experimental: 1) Menin/MLL Fluorescence Polarization Assay
# To a non-surface binding, black 384-well microtiter plate was added 50 nL 160× test compound in DMSO and 4 μL 2× menin in assay buffer (40 mM Tris·HCl, pH 7.5, 50 mM NaCl, 1 mM DTT and 0.001% Tween 20). After incubation of test compound and menin for 10 min at ambient temperature, 4 μL 2×FITC-MBM1 peptide (FITC-β-alanine-SARWRFPARPGT-NH2 (SEQ ID NO: 2)) in assay buffer was added, the microtiter plate centrifuged at 1000 rpm for 1 min and the assay mixtures incubated for 15 min at ambient temperature. The relative amount of menin·FITC-MBM1 complex present in an assay mixture is determined by measuring the fluorescence polarization (FP) of the FITC label with a BMG Pherastar plate reader (ex. 485 nm/em. 520 nm) at ambient temperature. The final concentrations of reagents in the binding assay are 100 nM menin, 5 nM FITC-MBM1 peptide and 0.625% DMSO in assay buffer. Dose-response titrations of test compounds are conducted using an 11 point, three-fold serial dilution scheme, starting at 31 μM.
# Compound potencies were determined by first calculating % inhibition at each compound concentration according to equation 1: % inhibition=((HC−LC)−(FP^compound−LC))/(HC−LC))*100 (Eqn 1)
# Where LC and HC are the FP values of the assay in the presence or absence of a saturating concentration of a compound that competes with FITC-MBM1 for binding to menin, and FP^compound is the measured FP value in the presence of the test compound. HC and LC FP values represent an average of at least 16 replicates per plate. […] 2) Proliferation Assay
# [6] = Homo sapiens, MOLM-14, MOLM14, averaged values, read-out: Spheroid assay MOLM14 (IC50 (μM))
# [7] = Homo sapiens, MV4-11, MV-4-11, averaged values, read-out: Spheroid assay MV-4-11 (IC50 (μM))
# [8] = K562 control cell line, averaged values, read-out: Spheroid assay K562 (IC50 (μM))
# [9] = KG-1, KG1 control cell line, averaged values, read-out: Spheroid assay KG1 (IC50 (μM))
# [10] = 100 nM menin, 5 nM FITC-MBM1 peptide, individual measurements (not averaged), read-out: (1) Menin FP assay (IC50 (μM))
# [11] = MOLM14 (MLL-AF9), 8 d, absolute IC50 from AUC of confluence, individual measurements (not averaged), read-out: (2) Spheroid assay MOLM14 (IC50 (μM))
# [12] = KG-1, 192 h, KG1 (MLL wildtype control), 8 d, absolute IC50 from AUC of confluence, individual measurements (not averaged), read-out: (2) Spheroid assay KG1 (IC50 (μM))
Compound,"IC50 [1, 6]","IC50 [2, 7]","IC50 [3, 8]","IC50 [4, 9]",further results
CC(C)[C@H](C1CCNCC1)N1CC2(CCN(c3ncnc4sc(CC(F)(F)F)cc34)C2)C1 [Compound 168],0.86 µM,0.19 µM,11.9 µM,15 µM,
CC[C@H](c1cnn(C)c1)N1CC2(CCN(c3ncnc4sc(CC(F)(F)F)cc34)C2)C1 [Compound 220],4.7 µM,0.65 µM,> 15 µM,> 15 µM,
"FC(F)(F)Cc1cc2c(N3CC[C@]4(CCN(Cc5ccccc5)C4)C3)ncnc2s1 (single isomer, unassigned) [Compound 20b]",,,,,"IC50 [5, 10]: 0.038 µM; IC50 [1, 11]: > 15 µM and 2.5 µM; IC50 ([2]; Homo sapiens, MV4-11, 192 h, MV-4-11 (MLL-AF4), 8 d, absolute IC50 from AUC of confluence, individual measurements (not averaged), read-out: (2) Spheroid assay MV-4-11 (IC50 (μM))): 0.51 µM; IC50 ([3]; 192 h, K562 (MLL wildtype control), 8 d, absolute IC50 from AUC of confluence, individual measurements (not averaged), read-out: (2) Spheroid assay K562 (IC50 (μM))): > 15 µM; IC50 [4, 12]: > 15 µM"
CC(C)C(c1cnn(CCO)c1)N1CC2(CCN(c3ncnc4sc(CC(F)(F)F)cc34)C2)C1 (stereo not shown) [Compound 62],4 µM,0.64 µM,,> 15 µM,
N#Cc1cc2cc(CN3CC4(CCN(c5ncnc6sc(CC(F)(F)F)cc56)C4)C3)ccc2[nH]1 [Compound 17],,,,,"IC50 [5, 10]: 0.054 µM; IC50 ([1]; Homo sapiens, MOLM-14, 192 h, MOLM14 (MLL-AF9), 8 d, absolute IC50 from AUC of confluence, individual measurements (not averaged), read-out: (2) Spheroid assay MOLM14 (IC50 (μM))): 3.4 µM; IC50 [1, 11]: 2.3 µM; IC50 ([2]; MV-4-11 (MLL-AF4), 8 d, absolute IC50 from AUC of confluence, individual measurements (not averaged), read-out: (2) Spheroid assay MV-4-11 (IC50 (μM))): 4.9 µM and 0.76 µM and 0.84 µM; IC50 [4, 12]: 11 µM"
"CC(C1CCOCC1)N1CC2(CCN(c3ncnc4sc(CC(F)(F)F)cc34)C2)C1 (single isomer, unassigned) [Compound 155]",1.2 µM,0.7 µM,,> 15 µM,
CC(C)C(CC1CCN(C)CC1)N1CC2(CCN(c3ncnc4sc(CC(F)(F)F)cc34)C2)C1 (stereo not shown) [Compound 316],0.96 µM,0.4 µM,,> 3.7 µM,
CC(C)[C@@H](N1CC2(CCN(c3ncnc4sc(CC(F)(F)F)cc34)C2)C1)C1(F)CN(C)C1 [Compound 304a],1.3 µM,0.44 µM,,> 15 µM,
CC(C)[C@H](C1CNC1)N1CC2(CCN(c3ncnc4sc(CC(F)(F)F)cc34)C2)C1 [Compound 273],0.86 µM,0.08 µM,10.3 µM,12 µM,"IC50 ([5]; averaged values over all measurements, read-out: Menin FP assay (IC50 (μM))): 0.021 µM"

# Further lines, with some results ahead:
"IC50 [1, 6]","IC50 [2, 7]","IC50 [3, 8]",Compound,"IC50 [4, 9]",further results
2.3 µM,0.36 µM,> 15 µM,CC(C)[C@H](c1cnn(C)c1)N1CC2(CCN(c3ncnc4sc(CC(F)(F)F)cc34)C2)C1 [Compound 274],> 15 µM,
1.2 µM,0.66 µM,,"Fc1ccc(CN2CC[C@]3(CCN(c4ncnc5sc(CC(F)(F)F)cc45)C3)C2)cc1 (single isomer, unassigned) [Compound 291]",> 15 µM,
1.5 µM,0.58 µM,,CC(Cc1ccc(F)cc1)N1CC2(CCN(c3ncnc4sc(CC(F)(F)F)cc34)C2)C1 (stereo not shown) [Compound 84],> 15 µM,
2.1 µM,0.45 µM,> 15 µM,CC(C)C[C@H](c1cnn(C)c1)N1CC2(CCN(c3ncnc4sc(CC(F)(F)F)cc34)C2)C1 [Compound 247],> 15 µM,
1.5 µM,0.29 µM,,"Fc1ccc(CN2CC[C@@]3(CCN(c4ncnc5sc(CC(F)(F)F)cc45)C3)C2)cc1 (single isomer, unassigned) [Compound 292]",> 15 µM,
1.8 µM,0.38 µM,> 15 µM,C[C@@H]1CN[C@H](C(=O)N2CC3(C2)CN(c2ncnc4sc(CC(F)(F)F)cc24)C3)C1 [Compound 82],> 15 µM,
1.4 µM,0.76 µM,,CC(C)C(c1cnn(C(C)C)c1)N1CC2(CCN(c3ncnc4sc(CC(F)(F)F)cc34)C2)C1 (stereo not shown) [Compound 214],> 15 µM,
1.7 µM,0.65 µM,> 15 µM,CC(C)[C@H](C1CCOCC1)N1CC2(CCN(c3ncnc4sc(CC(F)(F)F)cc34)C2)C1 [Compound 193],> 15 µM,
1.1 µM,0.3 µM,> 15 µM,CC(C)[C@H](C1CN(C)C1)N1CC2(CCN(c3ncnc4sc(CC(F)(F)F)cc34)C2)C1 [Compound 196],> 15 µM,
